Reference: the kinase profiling compilation of Christmann-Franck et al. (2016)

What was measured:
Assay in all cases: split-luciferase competition binding
AURKC (human) = AURKC (human) (UniProt Q9UQB9); details: compound 10.0 µM
RPS6KA2 KD1 (human) = RPS6KA2 KD1 (human) (UniProt Q15349); details: compound 10.0 µM
PRKACB (human) = PRKACB (human) (UniProt P22694); details: compound 10.0 µM
RPS6KA4 KD1 (human) = RPS6KA4 KD1 (human) (UniProt O75676); details: compound 10.0 µM
RPS6KA5 KD1 (human) = RPS6KA5 KD1 (human) (UniProt O75582); details: compound 10.0 µM
PRKCI (human) = PRKCI (human) (UniProt P41743); details: compound 10.0 µM
PDPK1 (human) = PDPK1 (human) (UniProt O15530); details: compound 10.0 µM
STK32B (human) = STK32B (human) (UniProt Q9NY57); details: compound 10.0 µM
AURKA (human) = AURKA (human) (UniProt O14965); details: compound 10.0 µM
PRKACA (mouse) = details: compound 10.0 µM; accession and sequence are those of the human protein
PRKCQ (human) = PRKCQ (human) (UniProt Q04759); details: compound 10.0 µM
PRKCH (human) = PRKCH (human) (UniProt P24723); details: compound 10.0 µM
SGK2 (human) = SGK2 (human) (UniProt Q9HBY8); details: compound 10.0 µM
PRKX (human) = PRKX (human) (UniProt P51817); details: compound 10.0 µM
AKT2 (human) = AKT2 (human) (UniProt P31751); details: compound 10.0 µM
AKT1 (human) = AKT1 (human) (UniProt P31749); details: compound 10.0 µM
RPS6KA3 KD1 (human) = RPS6KA3 KD1 (human) (UniProt P51812); details: compound 10.0 µM
PKN1 (human) = PKN1 (human) (UniProt Q16512); details: compound 10.0 µM
RPS6KA6 KD1 (human) = RPS6KA6 KD1 (human) (UniProt Q9UK32); details: compound 10.0 µM
PRKCE (human) = PRKCE (human) (UniProt Q02156); details: compound 10.0 µM
AURKB (human) = AURKB (human) (UniProt Q96GD4); details: compound 10.0 µM
RPS6KA1 KD1 (human) = RPS6KA1 KD1 (human) (UniProt Q15418); details: compound 10.0 µM
AKT3 (human) = AKT3 (human) (UniProt Q9Y243); details: compound 10.0 µM
DMPK (human) = DMPK (human) (UniProt Q09013); details: compound 10.0 µM
SGK3 (human) = SGK3 (human) (UniProt Q96BR1); details: compound 10.0 µM
PRKCD (human) = PRKCD (human) (UniProt Q05655); details: compound 10.0 µM
PRKCG (human) = PRKCG (human) (UniProt P05129); details: compound 10.0 µM

Sequence of RPS6KA2 KD1 (human) (Q15349 whole entry, looked up): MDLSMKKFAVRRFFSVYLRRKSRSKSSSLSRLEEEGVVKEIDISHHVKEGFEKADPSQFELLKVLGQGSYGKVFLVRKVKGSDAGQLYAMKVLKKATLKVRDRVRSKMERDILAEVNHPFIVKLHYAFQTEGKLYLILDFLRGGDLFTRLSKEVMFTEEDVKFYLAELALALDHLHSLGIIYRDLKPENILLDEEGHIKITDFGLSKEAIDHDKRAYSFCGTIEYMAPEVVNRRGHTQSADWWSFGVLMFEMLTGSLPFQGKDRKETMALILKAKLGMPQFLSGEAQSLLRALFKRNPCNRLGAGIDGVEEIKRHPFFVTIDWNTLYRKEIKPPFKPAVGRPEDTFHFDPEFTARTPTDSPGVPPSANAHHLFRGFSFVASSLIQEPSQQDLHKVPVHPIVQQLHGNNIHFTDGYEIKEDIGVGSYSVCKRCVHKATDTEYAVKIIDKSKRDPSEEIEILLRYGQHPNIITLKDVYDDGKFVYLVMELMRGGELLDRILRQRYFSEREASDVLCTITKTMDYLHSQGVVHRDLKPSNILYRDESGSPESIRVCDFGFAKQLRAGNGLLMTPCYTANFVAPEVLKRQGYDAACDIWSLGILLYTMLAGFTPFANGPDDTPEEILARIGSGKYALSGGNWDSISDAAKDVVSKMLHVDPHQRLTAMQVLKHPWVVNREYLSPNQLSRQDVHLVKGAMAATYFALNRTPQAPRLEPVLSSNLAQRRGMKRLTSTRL
Sequence of PRKCE (human) (Q02156 whole entry, looked up): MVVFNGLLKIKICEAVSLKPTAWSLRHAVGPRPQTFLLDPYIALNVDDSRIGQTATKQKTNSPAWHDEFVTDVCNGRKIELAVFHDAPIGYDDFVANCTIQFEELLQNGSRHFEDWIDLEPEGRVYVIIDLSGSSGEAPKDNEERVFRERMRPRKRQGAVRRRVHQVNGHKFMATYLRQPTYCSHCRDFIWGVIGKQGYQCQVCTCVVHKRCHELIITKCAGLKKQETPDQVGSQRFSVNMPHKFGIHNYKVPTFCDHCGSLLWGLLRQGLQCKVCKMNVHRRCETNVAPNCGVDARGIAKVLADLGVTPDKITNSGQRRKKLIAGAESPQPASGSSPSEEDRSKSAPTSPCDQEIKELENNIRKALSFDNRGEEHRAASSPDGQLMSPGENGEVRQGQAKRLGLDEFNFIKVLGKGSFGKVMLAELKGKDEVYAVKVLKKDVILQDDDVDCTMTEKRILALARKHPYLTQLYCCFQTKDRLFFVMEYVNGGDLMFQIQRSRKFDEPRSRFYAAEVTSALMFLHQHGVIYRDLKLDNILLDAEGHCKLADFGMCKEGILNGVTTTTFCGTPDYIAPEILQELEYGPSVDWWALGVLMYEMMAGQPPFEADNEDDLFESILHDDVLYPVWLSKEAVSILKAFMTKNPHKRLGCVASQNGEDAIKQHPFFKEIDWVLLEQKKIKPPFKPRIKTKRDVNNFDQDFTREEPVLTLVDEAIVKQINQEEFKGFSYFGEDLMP
Sequence of STK32B (human) (Q9NY57 whole entry, looked up): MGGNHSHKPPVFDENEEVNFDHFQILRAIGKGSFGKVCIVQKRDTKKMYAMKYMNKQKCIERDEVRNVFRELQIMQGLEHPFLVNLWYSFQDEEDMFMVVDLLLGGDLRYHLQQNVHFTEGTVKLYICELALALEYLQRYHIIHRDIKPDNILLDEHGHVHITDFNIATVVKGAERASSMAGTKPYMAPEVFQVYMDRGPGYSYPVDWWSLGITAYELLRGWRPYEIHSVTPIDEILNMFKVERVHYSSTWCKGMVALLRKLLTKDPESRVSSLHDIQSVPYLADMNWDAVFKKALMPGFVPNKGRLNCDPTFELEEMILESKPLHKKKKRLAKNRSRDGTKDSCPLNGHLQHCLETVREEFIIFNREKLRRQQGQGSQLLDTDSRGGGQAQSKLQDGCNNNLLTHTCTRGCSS
Sequence of AKT2 (human) (P31751 whole entry, looked up): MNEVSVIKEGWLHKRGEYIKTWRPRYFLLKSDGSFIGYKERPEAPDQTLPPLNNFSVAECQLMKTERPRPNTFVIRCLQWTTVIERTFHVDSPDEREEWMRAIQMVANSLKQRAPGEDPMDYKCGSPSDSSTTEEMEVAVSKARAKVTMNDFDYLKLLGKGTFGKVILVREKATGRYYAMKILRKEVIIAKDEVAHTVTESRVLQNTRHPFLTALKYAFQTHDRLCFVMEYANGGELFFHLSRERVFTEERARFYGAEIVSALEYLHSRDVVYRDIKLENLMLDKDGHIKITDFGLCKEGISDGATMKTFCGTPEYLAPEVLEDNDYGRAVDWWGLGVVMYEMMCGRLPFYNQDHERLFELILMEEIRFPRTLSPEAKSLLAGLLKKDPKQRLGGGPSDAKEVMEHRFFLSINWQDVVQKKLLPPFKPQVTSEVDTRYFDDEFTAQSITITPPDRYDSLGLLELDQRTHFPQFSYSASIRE
Sequence of RPS6KA6 KD1 (human) (Q9UK32 whole entry, looked up): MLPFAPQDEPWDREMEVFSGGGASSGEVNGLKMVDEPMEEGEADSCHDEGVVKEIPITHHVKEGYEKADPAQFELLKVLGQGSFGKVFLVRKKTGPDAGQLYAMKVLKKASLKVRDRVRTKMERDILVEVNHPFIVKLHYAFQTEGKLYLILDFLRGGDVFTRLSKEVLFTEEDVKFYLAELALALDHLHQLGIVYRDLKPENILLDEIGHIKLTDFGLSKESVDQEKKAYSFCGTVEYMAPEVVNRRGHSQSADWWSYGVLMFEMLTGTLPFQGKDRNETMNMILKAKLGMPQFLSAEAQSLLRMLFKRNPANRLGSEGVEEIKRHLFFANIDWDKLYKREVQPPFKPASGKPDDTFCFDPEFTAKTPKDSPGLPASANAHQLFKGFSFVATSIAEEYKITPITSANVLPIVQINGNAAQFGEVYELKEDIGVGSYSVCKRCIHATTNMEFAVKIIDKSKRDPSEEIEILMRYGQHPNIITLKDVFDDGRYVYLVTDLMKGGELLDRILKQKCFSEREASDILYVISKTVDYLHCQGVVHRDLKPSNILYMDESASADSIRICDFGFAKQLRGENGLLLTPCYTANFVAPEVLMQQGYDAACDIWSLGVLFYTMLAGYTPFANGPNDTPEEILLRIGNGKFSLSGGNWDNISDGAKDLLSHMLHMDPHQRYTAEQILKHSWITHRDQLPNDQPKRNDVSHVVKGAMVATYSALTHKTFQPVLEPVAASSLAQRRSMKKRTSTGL
Sequence of RPS6KA3 KD1 (human) (P51812 whole entry, looked up): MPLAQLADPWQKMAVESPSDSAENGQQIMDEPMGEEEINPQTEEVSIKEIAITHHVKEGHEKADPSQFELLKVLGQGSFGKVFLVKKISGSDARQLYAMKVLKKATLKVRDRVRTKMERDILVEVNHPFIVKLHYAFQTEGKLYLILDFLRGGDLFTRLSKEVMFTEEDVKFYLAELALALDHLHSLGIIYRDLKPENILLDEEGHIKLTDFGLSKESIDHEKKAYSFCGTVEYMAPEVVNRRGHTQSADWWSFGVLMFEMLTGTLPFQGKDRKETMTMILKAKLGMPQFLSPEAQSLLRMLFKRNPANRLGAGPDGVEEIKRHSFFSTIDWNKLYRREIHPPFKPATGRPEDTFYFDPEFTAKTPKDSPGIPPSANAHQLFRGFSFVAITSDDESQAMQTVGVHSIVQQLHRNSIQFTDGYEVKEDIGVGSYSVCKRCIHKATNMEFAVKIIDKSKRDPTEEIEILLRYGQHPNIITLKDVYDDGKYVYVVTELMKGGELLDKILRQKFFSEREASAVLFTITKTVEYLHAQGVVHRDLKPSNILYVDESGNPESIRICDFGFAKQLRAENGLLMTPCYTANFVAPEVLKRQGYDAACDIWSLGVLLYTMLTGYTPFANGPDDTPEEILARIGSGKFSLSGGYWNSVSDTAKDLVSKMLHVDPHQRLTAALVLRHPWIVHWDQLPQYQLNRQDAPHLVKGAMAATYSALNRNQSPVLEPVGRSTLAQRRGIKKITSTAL
Sequence of PRKCH (human) (P24723 whole entry, looked up): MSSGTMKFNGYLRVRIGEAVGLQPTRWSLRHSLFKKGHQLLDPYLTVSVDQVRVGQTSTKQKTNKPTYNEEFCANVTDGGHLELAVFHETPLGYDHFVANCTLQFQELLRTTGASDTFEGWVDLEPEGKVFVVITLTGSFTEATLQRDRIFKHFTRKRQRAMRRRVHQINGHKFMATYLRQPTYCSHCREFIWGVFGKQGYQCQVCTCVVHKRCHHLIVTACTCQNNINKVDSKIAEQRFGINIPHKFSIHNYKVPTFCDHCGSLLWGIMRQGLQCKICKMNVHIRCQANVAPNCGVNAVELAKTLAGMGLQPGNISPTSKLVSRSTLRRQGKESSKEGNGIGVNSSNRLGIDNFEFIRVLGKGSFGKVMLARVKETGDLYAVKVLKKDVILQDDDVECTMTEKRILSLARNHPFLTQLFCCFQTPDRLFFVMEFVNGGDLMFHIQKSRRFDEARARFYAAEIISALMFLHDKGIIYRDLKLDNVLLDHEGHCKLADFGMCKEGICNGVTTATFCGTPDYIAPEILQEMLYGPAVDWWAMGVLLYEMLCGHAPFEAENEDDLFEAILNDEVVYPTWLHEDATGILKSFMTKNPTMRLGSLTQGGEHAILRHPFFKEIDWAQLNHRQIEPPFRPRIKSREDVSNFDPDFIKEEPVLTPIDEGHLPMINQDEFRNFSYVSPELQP
Sequence of AURKB (human) (Q96GD4 whole entry, looked up): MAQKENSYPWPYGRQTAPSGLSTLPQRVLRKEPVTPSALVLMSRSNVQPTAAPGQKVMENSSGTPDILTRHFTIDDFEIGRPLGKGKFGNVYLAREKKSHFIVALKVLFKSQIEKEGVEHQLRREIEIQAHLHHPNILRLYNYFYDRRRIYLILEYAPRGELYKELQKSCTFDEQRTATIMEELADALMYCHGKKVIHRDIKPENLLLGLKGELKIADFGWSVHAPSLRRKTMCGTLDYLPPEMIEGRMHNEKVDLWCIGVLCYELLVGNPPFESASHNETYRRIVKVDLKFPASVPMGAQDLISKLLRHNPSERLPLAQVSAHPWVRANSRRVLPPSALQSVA

SMILES | inhibition (AURKC (human)) [%] | inhibition (RPS6KA2 KD1 (human)) [%] | inhibition (RPS6KA4 KD1 (human)) [%] | inhibition (PRKCI (human)) [%] | inhibition (PDPK1 (human)) [%] | inhibition (STK32B (human)) [%] | inhibition (AURKA (human)) [%] | inhibition (PRKCQ (human)) [%] | inhibition (PRKCH (human)) [%] | inhibition (SGK2 (human)) [%] | inhibition (PRKX (human)) [%] | inhibition (AKT1 (human)) [%] | inhibition (PKN1 (human)) [%] | inhibition (RPS6KA6 KD1 (human)) [%] | inhibition (PRKCE (human)) [%] | inhibition (AURKB (human)) [%] | inhibition (RPS6KA1 KD1 (human)) [%] | inhibition (AKT3 (human)) [%] | inhibition (SGK3 (human)) [%] | inhibition (PRKCD (human)) [%] | also measured
COc1cc2c(Nc3ccc(NC(=O)c4ccccc4)cc3)ncnc2cc1OCCCN1CCOCC1 | 66 | 2 | 0 | 0 | 0 | 1 | 13 | 0 | 0 | 0 | 7 | 9 | 2 | 3 | 0 | 55 | 5 | 0 | 0 | 0 | inhibition (PRKACB (human)): 0%; inhibition (RPS6KA5 KD1 (human)): 0%; inhibition (PRKACA (mouse)): 7%; inhibition (PRKCG (human)): 6%; inhibition (AKT2 (human)): 0%; inhibition (DMPK (human)): 9%
Cc1ccc(-c2nn(C(C)(C)C)c3ncnc(N)c23)cc1 | 0 | 1 | 1 | 0 | 0 | 58 | 0 | 0 | 8 | 0 | 0 | 2 | 0 | 14 | 8 | 0 | 27 | 0 | 0 | 0 | inhibition (PRKACB (human)): 0%; inhibition (RPS6KA5 KD1 (human)): 0%; inhibition (PRKCG (human)): 0%; inhibition (AKT2 (human)): 0%; inhibition (RPS6KA3 KD1 (human)): 8%; inhibition (DMPK (human)): 28%
O=S(=O)(c1cccc2cnccc12)N1CCCNCC1 | 6 | 0 | 0 | 38 | 0 | 0 | 0 | 1 | 17 | 1 | 77 | 0 | 0 | 0 | 0 | 0 | 2 | 0 | 0 | 1 | inhibition (RPS6KA5 KD1 (human)): 0%; inhibition (PRKCG (human)): 0%; inhibition (AKT2 (human)): 0%; inhibition (DMPK (human)): 0%
CCN(CC)CCNC(=O)c1c(C)[nH]c(/C=C2\C(=O)Nc3ccc(F)cc32)c1C | 30 | 69 | 86 | 22 | 10 | 0 | 0 | 7 | 39 | 44 | 25 | 28 | 0 | 69 | 22 | 22 | 86 | 26 | 42 | 0 | inhibition (PRKACB (human)): 0%; inhibition (PRKACA (mouse)): 2%; inhibition (PRKCG (human)): 0%; inhibition (RPS6KA3 KD1 (human)): 59%; inhibition (DMPK (human)): 0%

The next lines start with results.

inhibition (AURKC (human)) [%] | inhibition (RPS6KA2 KD1 (human)) [%] | inhibition (RPS6KA4 KD1 (human)) [%] | inhibition (PRKCI (human)) [%] | inhibition (PDPK1 (human)) [%] | inhibition (STK32B (human)) [%] | inhibition (AURKA (human)) [%] | inhibition (PRKCQ (human)) [%] | inhibition (PRKCH (human)) [%] | inhibition (SGK2 (human)) [%] | inhibition (PRKX (human)) [%] | inhibition (AKT1 (human)) [%] | inhibition (PKN1 (human)) [%] | inhibition (RPS6KA6 KD1 (human)) [%] | inhibition (PRKCE (human)) [%] | inhibition (AURKB (human)) [%] | inhibition (RPS6KA1 KD1 (human)) [%] | inhibition (AKT3 (human)) [%] | inhibition (SGK3 (human)) [%] | inhibition (PRKCD (human)) [%] | SMILES | also measured
10 | 89 | 56 | 63 | 2 | 63 | 2 | 93 | 81 | 34 | 32 | 62 | 36 | 80 | 71 | 13 | 71 | 78 | 65 | 91 | Cn1cc(C2=C(c3cn(CCCSC(=N)N)c4ccccc34)C(=O)NC2=O)c2ccccc21 | inhibition (PRKACB (human)): 73%; inhibition (RPS6KA5 KD1 (human)): 64%; inhibition (PRKACA (mouse)): 62%; inhibition (AKT2 (human)): 28%; inhibition (RPS6KA3 KD1 (human)): 87%; inhibition (DMPK (human)): 76%
0 | 3 | 0 | 0 | 10 | 19 | 0 | 12 | 1 | 0 | 8 | 15 | 0 | 0 | 0 | 3 | 0 | 0 | 12 | 0 | O=C1NC(=O)c2cc(Nc3ccc(F)cc3)c(Nc3ccc(F)cc3)cc21 | inhibition (PRKACB (human)): 8%; inhibition (RPS6KA5 KD1 (human)): 0%; inhibition (PRKACA (mouse)): 13%; inhibition (AKT2 (human)): 0%; inhibition (RPS6KA3 KD1 (human)): 0%
